Test results as given in patent US8367658B2, “Pyrazin-2-yl-pyridin-2-yl-amine and pyrazin-2-yl-pyrimidin-4-yl-amine compounds and their use” (Cancer Research Technology Limited, priority 2007, dated 2013).

molecular target: T1, CHK1 (Homo sapiens, UniProt O14757); assay: CHK1 kinase function inhibition assay (DELFIA, phosphorylation of a CDC25C peptide); format: biochemical; conditions: CHK1 1 nM, ATP 30 μM, 30 minutes at room temperature
T1 sequence (O14757 1-476): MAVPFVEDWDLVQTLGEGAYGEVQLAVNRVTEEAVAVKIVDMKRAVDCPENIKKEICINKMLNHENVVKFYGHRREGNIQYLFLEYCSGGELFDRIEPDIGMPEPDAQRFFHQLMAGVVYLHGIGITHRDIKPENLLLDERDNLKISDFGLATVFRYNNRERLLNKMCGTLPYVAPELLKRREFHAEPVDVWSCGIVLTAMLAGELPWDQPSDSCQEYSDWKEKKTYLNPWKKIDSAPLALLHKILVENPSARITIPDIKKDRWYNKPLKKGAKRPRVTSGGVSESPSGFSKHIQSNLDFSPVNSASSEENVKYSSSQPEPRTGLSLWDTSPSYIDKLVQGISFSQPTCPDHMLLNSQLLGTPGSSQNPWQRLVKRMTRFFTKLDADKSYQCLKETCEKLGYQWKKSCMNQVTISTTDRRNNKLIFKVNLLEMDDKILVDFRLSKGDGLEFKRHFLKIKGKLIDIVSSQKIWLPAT
How it was run: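 Phosphorylation of a CDC25C peptide detected by DELFIA with a phospho-specific antibody. Kinase reaction ran 30 min at room temperature, was stopped with EDTA buffer, then captured on neutravidin-coated plates for 1 h before time-resolved fluorescence read-out with enhancement solution.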

| Compound | IC50 |
| --- | --- |
| COCc1cccc(-c2cnc(Nc3cnc(C#N)cn3)cc2NC2CCN(C)CC2)c1 [Compound Y-115, 5-(5-(3-(methoxymethyl)phenyl)-4-(1-methylpiperidin-4-ylamino)pyridin-2-ylamino)pyrazine-2-carbonitrile] | ≤ 100 nM |
| COCc1ccc(-c2cnc(Nc3cnc(C#N)cn3)cc2NC2CCN(C)CC2)cc1 [Compound Y-119, 5-(5-(4-(Methoxymethyl)phenyl)-4-(1-methylpiperidin-4-ylamino)pyridin-2-ylamino)pyrazine-2-carbonitrile] | ≤ 100 nM |
| Cc1ccccc1-c1cnc(Nc2cnc(C#N)cn2)cc1NC1CCN(C)CC1 [Compound Y-121, 5-(4-(1-Methylpiperidin-4-ylamino)-5-o-tolylpyridin-2-ylamino)pyrazine-2-carbonitrile] | 100 to 1000 nM |
| COc1ccc(-c2cnc(Nc3cnc(C#N)cn3)cc2NC2CCNCC2)cc1 [Compound Y-122, 5-(5-(4-Methoxyphenyl)-4-(piperidin-4-ylamino)pyridin-2-ylamino)pyrazine-2-carbonitrile] | ≤ 100 nM |
| N#Cc1cnc(Nc2cc(NCC3CCNCC3)c(Cl)cn2)cn1 [Compound Y-124, 5-(5-chloro-4-(piperidin-4-ylmethylamino)pyridin-2-ylamino)pyrazine-2-carbonitrile] | ≤ 100 nM |
| COc1ccc(-c2cnc(Nc3cnc(C#N)cn3)cc2NCC2CCNCC2)cc1 [Compound Y-126, 5-(5-(4-Methoxyphenyl)-4-(piperidin-4-ylmethylamino)pyridin-2-ylamino)pyrazine-2-carbonitrile] | ≤ 100 nM |
| COCc1ccc(-c2cnc(Nc3cnc(C#N)cn3)cc2NCC2CCNCC2)cc1 [Compound Y-127, 5-(5-(4-(Methoxymethyl)phenyl)-4-(piperidin-4-ylmethylamino)pyridin-2-ylamino)pyrazine-2-carbonitrile] | ≤ 100 nM |
| CCOC(=O)c1cc(-c2cnc(Nc3cnc(C#N)cn3)cc2NCC2CCNCC2)cs1 [Compound Y-128, Ethyl 4-(6-(5-cyanopyrazin-2-ylamino)-4-(piperidin-4-ylmethylamino)pyridin-3-yl)thiophene-2-carboxylate] | ≤ 100 nM |
| CS(=O)(=O)c1ccc(-c2cnc(Nc3cnc(C#N)cn3)cc2NCC2CCNCC2)cc1 [Compound Y-130, 5-(5-(4-(methylsulfonyl)phenyl)-4-(piperidin-4-ylmethylamino)pyridin-2-ylamino)pyrazine-2-carbonitrile] | ≤ 100 nM |
| COCCCOc1ccc(-c2cnc(Nc3cnc(C#N)cn3)cc2NCC2CCNCC2)cc1 [Compound Y-133, 5-(5-(4-(3-Methoxypropoxy)phenyl)-4-(piperidin-4-ylmethylamino)pyridin-2-ylamino)pyrazine-2-carbonitrile] | 100 to 1000 nM |
| N#Cc1cnc(Nc2cc(NCC3CCNCC3)c(-c3ccc4c(c3)OCCO4)cn2)cn1 [Compound Y-134, 5-(5-(2,3-Dihydrobenzo[b][1,4]dioxin-6-yl)-4-(piperidin-4-ylmethylamino)pyridin-2-ylamino)pyrazine-2-carbonitrile] | 100 to 1000 nM |
| COc1ccc(-c2cnc(Nc3cnc(C#N)cn3)cc2NCC2(F)CCNCC2)cc1 [Compound Y-136, 5-(4-((4-Fluoropiperidin-4-yl)methylamino)-5-(4-methoxyphenyl)pyridin-2-ylamino)pyrazine-2-carbonitrile] | ≤ 100 nM |
| COc1ccc(-c2cnc(Nc3cnc(C#N)cn3)cc2NCCC2CNCCO2)cc1 (centres unmarked) [Compound Y-137, 5-(5-(4-methoxyphenyl)-4-(2-(morpholin-2-yl)ethylamino)pyridin-2-ylamino)pyrazine-2-carbonitrile] | ≤ 100 nM |
| N#Cc1cnc(Nc2cc(NCCC3CNCCO3)c(-c3ccccc3)cn2)cn1 (centres unmarked) [Compound Y-138, 5-(4-(2-(Morpholin-2-yl)ethylamino)-5-phenylpyridin-2-ylamino)pyrazine-2-carbonitrile] | ≤ 100 nM |
| COC/C=C/c1cnc(Nc2cnc(C#N)cn2)cc1NCC1CCNCC1 [Compound Y-139, (E)-5-(5-(3-Methoxyprop-1-enyl)-4-(piperidin-4-ylmethylamino)pyridin-2-ylamino)pyrazine-2-carbonitrile] | ≤ 100 nM |
| N#Cc1cnc(Nc2cc(NCC3CCNCC3)c(C#CCO)cn2)cn1 [Compound Y-145, 5-(5-(3-Hydroxyprop-1-ynyl)-4-(piperidin-4-ylmethylamino)pyridin-2-ylamino)pyrazine-2-carbonitrile] | ≤ 100 nM |
| COCCOc1ccc(-c2cnc(Nc3cnc(C#N)cn3)cc2NC[C@@H]2CNCCO2)cc1 [Compound Y-149, (S)-5-(5-(4-(2-Methoxyethoxy)phenyl)-4-(morpholin-2-ylmethylamino)pyridin-2-ylamino)pyrazine-2-carbonitrile] | ≤ 100 nM |
| COCC#Cc1cnc(Nc2cnc(C#N)cn2)cc1NC[C@@H]1CNCCO1 [Compound Y-154, (S)-5-(5-(3-Methoxyprop-1-ynyl)-4-(morpholin-2-ylmethylamino)pyridin-2-ylamino)pyrazine-2-carbonitrile] | ≤ 100 nM |
| COC(C)(C)C#Cc1cnc(Nc2cnc(C#N)cn2)cc1NC[C@@H]1CNCCO1 [Compound Y-155, (S)-5-(5-(3-Methoxy-3-methylbut-1-ynyl)-4-(morpholin-2-ylmethylamino)pyridin-2-ylamino)pyrazine-2-carbonitrile] | ≤ 100 nM |
| NCCCCNc1cc(Nc2cnccn2)ncn1 [Compound Z-006, N-(4-Aminobutyl)-N′-pyrazin-2-ylpyrimidine-4,6-diamine] | 1000 to 10000 nM |

Further lines, results first:

| IC50 | Compound |
| --- | --- |
| ≤ 100 nM | COc1cccc(-c2cnc(Nc3cnc(C#N)cn3)cc2NC2CCN(C)CC2)c1 [Compound Y-116, 5-(5-(3-Methoxyphenyl)-4-(1-methylpiperidin-4-ylamino)pyridin-2-ylamino)pyrazine-2-carbonitrile] |
| ≤ 100 nM | COCCOc1ccc(-c2cnc(Nc3cnc(C#N)cn3)cc2NC2CCN(C)CC2)cc1 [Compound Y-117, 5-(5-(4-(2-Methoxyethoxy)phenyl)-4-(1-methylpiperidin-4-ylamino)pyridin-2-ylamino)pyrazine-2-carbonitrile] |
| ≤ 100 nM | COCCOc1cccc(-c2cnc(Nc3cnc(C#N)cn3)cc2NC2CCN(C)CC2)c1 [Compound Y-118, 5-(5-(3-(2-methoxyethoxy)phenyl)-4-(1-methylpiperidin-4-ylamino)pyridin-2-ylamino)pyrazine-2-carbonitrile] |
| ≤ 100 nM | CN1CCC(Nc2cc(Nc3cnc(C#N)cn3)ncc2-c2ccc(N3CCOCC3)cc2)CC1 [Compound Y-120, 5-(4-(1-Methylpiperidin-4-ylamino)-5-(4-morpholinophenyl)pyridin-2-ylamino)pyrazine-2-carbonitrile] |
| ≤ 100 nM | COC/C=C/c1cnc(Nc2cnc(C#N)cn2)cc1NC1CCN(C)CC1 [Compound Y-123, (E)-5-(5-(3-methoxyprop-1-enyl)-4-(1-methylpiperidin-4-ylamino)pyridin-2-ylamino)pyrazine-2-carbonitrile] |
| ≤ 100 nM | N#Cc1cnc(Nc2cc(NCC3CCNCC3)c(-c3ccc(OCCO)cc3)cn2)cn1 [Compound Y-129, 5-(5-(4-(2-hydroxyethoxy)phenyl)-4-(piperidin-4-ylmethylamino)pyridin-2-ylamino)pyrazine-2-carbonitrile] |
| 100 to 1000 nM | CS(=O)(=O)c1cccc(-c2cnc(Nc3cnc(C#N)cn3)cc2NCC2CCNCC2)c1 [Compound Y-132, 5-(5-(3-(Methylsulfonyl)phenyl)-4-(piperidin-4-ylmethylamino)pyridin-2-ylamino)pyrazine-2-carbonitrile] |
| ≤ 100 nM | COCCCc1cnc(Nc2cnc(C#N)cn2)cc1NCC1CCNCC1 [Compound Y-141, 5-(5-(3-methoxypropyl)-4-(piperidin-4-ylmethylamino)pyridin-2-ylamino)pyrazine-2-carbonitrile] |
| 100 to 1000 nM | N#Cc1cnc(Nc2cc(NCC3CCNCC3)c(CCCCO)cn2)cn1 [Compound Y-142, 5-(5-(4-hydroxybutyl)-4-(piperidin-4-ylmethylamino)pyridin-2-ylamino)pyrazine-2-carbonitrile] |
| ≤ 100 nM | COCc1ccc(-c2cnc(Nc3cnc(C#N)cn3)cc2NC[C@@H]2CNCCO2)cc1 [Compound Y-148, (S)-5-(5-(4-(Methoxymethyl)phenyl)-4-(morpholin-2-ylmethylamino)pyridin-2-ylamino)pyrazine-2-carbonitrile] |
| ≤ 100 nM | COCc1ccc(-c2cnc(Nc3cnc(C#N)cn3)cc2NC[C@H]2CNCCO2)cc1 [Compound Y-156, (R)-5-(5-(4-(Methoxymethyl)phenyl)-4-(morpholin-2-ylmethylamino)pyridin-2-ylamino)pyrazine-2-carbonitrile] |
| ≤ 100 nM | COCCOc1ccc(-c2cnc(Nc3cnc(C#N)cn3)cc2NC[C@H]2CNCCO2)cc1 [Compound Y-157, (R)-5-(5-(4-(2-Methoxyethoxy)phenyl)-4-(morpholin-2-ylmethylamino)pyridin-2-ylamino)pyrazine-2-carbonitrile] |
| ≤ 100 nM | COCCCc1cnc(Nc2cnc(C#N)cn2)cc1NC[C@H]1CNCCO1 [Compound Y-159, (R)-5-(5-(3-Methoxypropyl)-4-(morpholin-2-ylmethylamino)pyridin-2-ylamino)pyrazine-2-carbonitrile] |
| 1000 to 10000 nM | c1cnc(Nc2cc(NCC3CCNCC3)ncn2)cn1 [Compound Z-004, N-(Piperidin-4-ylmethyl)-W-pyrazin-2-ylpyrimidine-4,6-diamine] |
| 1000 to 10000 nM | NCCCNc1cc(Nc2cnccn2)ncn1 [Compound Z-005, N-(3-Aminopropyl)-A-pyrazin-2-ylpyrimidine-4,6-diamine] |
